Measurements taken from patent US12642860B2, “Filamentous nanostructures and their use for treatment of pulmonary disease” (THE JOHNS HOPKINS UNIVERSITY, priority 2019, dated 2026).
Non-standard residues stand in square brackets, D forms with d. Residues, ends and D or L forms follow the SMILES beside them. ξ: configuration not given here. *: point of attachment. X2 = CCCC1O[C@@H]2C[C@H]3[C@@H]4CCC5=CC(=O)C=C[C@]5(C)[C@H]4[C@@H](O)CC3(C)C2(C(=O)COC(=O)OCCS*)O1; Lauroyl = CCCCCCCCCCCC(=O)*; X1 = COCCOCCOCCOCCOCCC(=O)*; ξE = NC(CCC(=O)O)C(=O)O; ξQ = NC(=O)CCC(N)C(=O)O; ξD = NC(CC(=O)O)C(=O)O; ξL = CC(C)CC(N)C(=O)O; ξK = NCCCCC(N)C(=O)O; ξV = CC(C)C(N)C(=O)O; ξP = O=C(O)C1CCCN1

Assays:
Type in all cases: physicochemical
[1] = Contour length analysis of filaments in TEM images after jet nebulization; details: jet nebulization 10 min, mean±SD; for average contour length, exiting the nebulizer as a mist: nebulized mist population; for average contour length, leftover in the reservoir: reservoir population
Description: FIGS. 12A-12F are contour length reduction analyses of (12A) EPA, (12B) OPA, and (12C) KPA filaments after nebulization, comparing the nebulized (red) and reservoir (blue) populations' size distributions (20 bins, 50 nm each). Nebulized populations measured shorter on average compared to the reservoir populations. Average contour lengths (μ) given as mean±SD alongside medians (M) for each population (****p<0.0001, two-tail unpaired t test; EPA: nN=316, nR=316; OPA: nN=311, nR=339; KPA: nN=377, nR=369). Dynamic light scattering measurements of (12D) EPA, (12E) OPA, and (12F) KPA over the course of a 10 min nebulization event as collected every 2 min, showing consistent filament breakdown over time. Data are normalized to molar scattering rate of filaments at t=0 min and given as mean±SD (p>0.05, two-way ANOVA, n=3).
(§1) Since the supramolecular filament compositions are several microns long and are formed through non-covalent interactions, their structural integrity may be influenced by a number of factors during nebulization, such as agitation and aerosol formation. Thus, we first assessed the structural stability of these systems while traveling in aerosol droplets generated by a jet nebulizer. Nebulizers are commonly employed medical devices for producing liquid aerosol droplets containing therapeutics via high velocity airflow through the device nozzle. Droplets very large in diameter impact baffles and/or the walls of the nebulizer and are recycled back into the device's reservoir, but droplets small enough to circumvent these barriers (typically ranging in diameter from 1 to 10 μm) exit the device as a respirable aerosol. Therefore, we characterized two groups of structures after nebulization: the exiting mist and the leftover solution in the reservoir. Filament compositions in solutions diluted down to 500 µM of the different PAs were loaded into a jet nebulizer and nebulized for 10 minutes, and the mist and leftover reservoir solutions were collected and subsequently analyzed with TEM. […] For both the nebulized and reservoir populations, we see the introduction of short bundled fibrils, worm-like micelles, and spherical micelles (spherical micelles depicted in FIG. 7).
Filaments before nebulization were not measured, as accurate contour lengths could not be determined, since the filaments are over several microns long. For all three systems, the nebulized population was measured to be on average shorter than its respective reservoir population. […] The EPA, OPA, and KPA filaments averaged around 287±147 nm, 174±103 nm, and 133±108 nm, respectively, exiting the nebulizer as a mist and around 360±177 nm, 206±88 nm, and 196±113 nm, respectively, leftover in the reservoir. For the KPA system, spherical micelles were omitted from this analysis as they bias the distribution representation toward non-filamentous structures.

[2] = TEM morphology of filaments after jet nebulization; details: 500 μM, jet nebulization 10 min, mist and reservoir
Description: as §1
After encapsulation, we used TEM imaging to confirm self-assembly of the system into filamentous nanostructures. […] Spherical micelles are still observed, but the fibril and worm-like structures are not. […] In terms of delivering therapeutics in an aerosol, this presents an effective strategy for improving structural stability of supramolecular peptide-based assemblies during nebulization.

[3] = Critical assembly concentration (CAC) by Nile Red assay; details: in water
Description: FIGS. 17A-17C depict the critical assembly concentration (CAC) of (17A) EPA, (17B) OPA, and (17C) KPA molecules in water as measured from a Nile Red assay. A fluorescence intensity maximum is shifted from a wavelength of 660 nm to 635 nm as Nile Red dye becomes encapsulated within the supramolecular structures of the peptide amphiphiles (PAs). Blue line represents region of concentrations where Nile Red remains in solution; red line represents region where Nile Red is encapsulated. Data are given as mean±SD (n=3).
Therefore, we assessed the thermodynamic stability of each supramolecular filament system by measuring their critical assembly concentration (CAC) using a Nile Red assay. As shown in FIGS. 17A-C, the CAC values of EPA, OPA, and KPA were measured to be 1 μM, 1.9 μM, and 40 μM, respectively. Data from the Nile Red assay are given in full in FIG. 18. The differences in CAC between the different PAs are likely reflective of differences in electrostatic repulsion between the charged groups of EPA and KPA and steric effects with respect to the size of the OEG groups of the OPA molecule.^74 We find a direct correlation between the CAC value and nebulization stability of the supramolecular filaments with respect to nanostructure integrity and hydrogen bonding interactions. […] As the CAC value represents the propensity of the monomer units to aggregate in solution, increasing the strength of hydrophobic interactions alongside other non-covalent interactions through molecular engineering can result in lower CAC systems, and thus create supramolecular filament systems with enhanced stability during aerosol formation.

[4] = Dynamic light scattering molar scattering rate during nebulization; details: measured every 2 min for 10 min nebulization
Description: We next investigated whether this filament breakdown was consistent over the course of a nebulization event. We measured the molar scattering rate of the filaments with dynamic light scattering (DLS) every 2 min for a total 10 min as a measure of assembly size, as larger filamentous assemblies will scatter light more strongly than smaller ones. The molar scattering rate represents the scattering rate normalized to the sample concentration and is used here, since the DLS software uses models for fitting spherical particles and our structures are anisotropic. […] In terms of delivering supramolecular filament systems with a jet nebulizer for treatment administration, the consistent filament breakdown over the course of a nebulization event is promising in regard to aerosol delivery, as the filaments are released reliably with a relatively uniform size drop over time from the device.

[5] = Circular dichroism of filaments before and after nebulization; details: for CD signal immediately after nebulization, mist / CD signal immediately after nebulization, reservoir: 500 μM, 10 min nebulization; for CD signal immediately after nebulization, mist: filaments collected in the mist; for CD signal immediately after nebulization, reservoir: filaments leftover in the reservoir; for CD signal 2 weeks after nebulization: same solutions aged additional 2 weeks at room temperature
Description: FIGS. 13A-13C show circular dichroism (CD) spectra of the supramolecular filament systems before and immediately after nebulization (solid lines) alongside the same solutions 2 weeks later (dashed lines). All filaments were nebulized at 500 µM for 10 min. Data given are mean spectra for each solution (n=3). (13A) EPA filaments before and after nebulization, showing preservation of β-sheet character during nebulization. (13B) OPA filaments before and after nebulization, showing retention of β-sheet character with a temporary increase in CD signal. (13C) KPA filaments before and after nebulization, showing a transition from β-sheet to random coil for the nebulization group and weakened β-sheet hydrogen bonding for the reservoir group.
While we were able to directly observe filament breakdown in terms of length, we investigated further the impact nebulization may have on the molecular packing of the PA monomers within the supramolecular filaments. FIG. 13 contains the representative circular dichroism (CD) spectra of the three filament systems before and after a 10 min nebulization event of both filaments that exit as mist and those leftover in the reservoir. EPA, OPA, and KPA filaments before nebulization show primarily β-sheet characteristic hydrogen bonding, as evidenced by a negative peak around 220 nm and a positive peak around 197 nm for each system. […] This slightly contrasts from the behavior observed for the EPA filaments and is likely attributed to the potential alignment of OEG chains of OPA from aerosol formation forces, which reduces steric repulsion between OPA monomers. […] This is corroborated by the morphologies observed for the KPA filaments after nebulization, as smaller worm-like micelles and spherical micelles were generated. The strength of the hydrogen-bonding network within the supramolecular filaments is evidently important in the maintenance and stabilization of β-sheet character after nebulization.
To gain insight into the thermodynamic stability of the new assembly states induced by nebulization, we analyzed the CD signal of the same filament solutions after nebulization after aging for an additional 2 weeks in solution at room temperature. […] Additionally, the shorter EPA and OPA filaments are still observed in the nebulized and reservoir groups with TEM imaging after 2 weeks (FIGS. 14 and 15). […] Since a transition back to β-sheet character is not observed for the nebulized group, it is likely that nebulization induces the formation of new metastable assemblies of the KPA monomers, which is corroborated by TEM images of the KPA filaments 2 weeks after nebulization, as the fibril, worm-like micelle, and spherical micelle structures are still observed (FIG. 16).

Compound	average contour length, exiting the nebulizer as a mist [1]	average contour length, leftover in the reservoir [1]	structure/morphology after nebulization (TEM) [2]	critical assembly concentration (CAC) [3] [µM]	filament breakdown over time (molar scattering rate, DLS) [4]	CD signal immediately after nebulization, mist [5]	CD signal immediately after nebulization, reservoir [5]	CD signal 2 weeks after nebulization [5]
CCCCCCCCCCCC(=O)N[C@@H](Cc1ccc(O)cc1)C(=O)NC(C(=O)N[C@H](C(=O)NC(C(=O)NCC(=O)NCC(=O)N[C@@H](CCCCN)C(=O)NC(CCCCN)C(=O)N[C@@H](CCCCN)C(N)=O)C(C)C)C(C)C)C(C)C (stereo partly shown) [KPA] (Lauroyl-Y[ξV]V[ξV]GGK[ξK]K-NH2)	~133±108 nm	~196±113 nm	formation of different morphologies in both populations	40	consistent breakdown over the course of 10 min	secondary structure transition from β-sheet to random coil character	weakened β-sheet signal	continued to display the weakened β-sheet signal in the reservoir group and the random coil character of the nebulized group
CCCCCCCCCCCC(=O)N[C@@H](Cc1ccc(O)cc1)C(=O)NC(C(=O)N[C@H](C(=O)NC(C(=O)NCC(=O)NCC(=O)N[C@@H](CCC(=O)O)C(=O)NC(CCC(=O)O)C(=O)N[C@@H](CCC(=O)O)C(N)=O)C(C)C)C(C)C)C(C)C (stereo partly shown) [EPA] (Lauroyl-Y[ξV]V[ξV]GGE[ξE]E-NH2)	around 287±147 nm	around 360±177 nm	maintained their filamentous structure but a notable reduction in length was observed	1	consistent breakdown over the course of 10 min	slightly increased β-sheet signal	no change to their hydrogen bonding	maintained their β-sheet character
CCCC1O[C@@H]2C[C@H]3[C@@H]4CCC5=CC(=O)C=C[C@]5(C)[C@H]4[C@@H](O)CC3(C)C2(C(=O)COC(=O)OCCSSC[C@H](NC(C)=O)C(=O)NC(C(=O)N[C@H](C(=O)NC(C(=O)NCC(=O)NCC(=O)NC(CCCCN)C(=O)NC(C(=O)NC(CC(C)C)C(=O)NC(CC(=O)O)C(=O)NCC(=O)NC(CCC(N)=O)C(=O)NC(CC(=O)O)C(=O)N2CCCC2C(N)=O)C(C)C)C(C)C)C(C)C)C(C)C)O1 (stereo partly shown) [CAB-0] (Ac-C(X2)[ξV]V[ξV]GG[ξK][ξV][ξL][ξD]G[ξQ][ξD][ξP]-NH2)	–	–	retention of filaments after a nebulization event with shortened length	–	–	–	–	–
CCCCCCCCCCCC(=O)N[C@@H](Cc1ccc(O)cc1)C(=O)NC(C(=O)N[C@H](C(=O)NC(C(=O)NCC(=O)NCC(=O)N[C@@H](CCCCNC(=O)CCOCCOCCOCCOCCOC)C(=O)NC(CCCCNC(=O)CCOCCOCCOCCOCCOC)C(N)=O)C(C)C)C(C)C)C(C)C (stereo partly shown) [OPA] (Lauroyl-Y[ξV]V[ξV]GGK(X1)[ξK](X1)-NH2)	~174±103 nm	~206±88 nm	shorter filaments are produced	1.9	consistent breakdown over the course of 10 min	increased β-sheet signals	increased β-sheet signals	maintained their β-sheet character
